# Where “and” joins values, the source holds several entries; their conditions need not be identical. Equal entries are not always repeated. Where two headings read alike, the source gives them in different places.
# Legend:
# Experiment in all cases: Disruption of BRAF RBD interaction with Ras (FRET / MOA assay, with Cyclophilin A)
# Format in all cases: biochemical
# KRAS G12D = KRAS G12D (Homo sapiens, UniProt P01116+P62937, G12D); conditions: read-out: KRAS G12D FRET data, IC50
# Excerpt: (§1) This protocol may also be executed substituting other Ras proteins or nucleotides.
# (§2) The purpose of this biochemical assay was to measure the ability of test compounds to facilitate ternary complex formation between a nucleotide-loaded K-Ras isoform and Cyclophilin A; the resulting ternary complex disrupts binding to a BRAF^RBD construct, inhibiting K-Ras signaling through a RAF effector. Data is reported as IC50 values.
# (§3) Compound was present in plate wells as a 10-point 3-fold dilution series starting at a final concentration of 30 μM. After incubation at 25° C. for 3 hours, a mixture of Anti-His Eu-W1024 and anti-GST allophycocyanin was then added to assay sample wells at final concentrations of 10 nM and 50 nM, respectively, and the reaction incubated for an additional 1.5 hours. […] Compounds that facilitate disruption of a K-Ras:RAF complex were identified as those eliciting a decrease in the TR-FRET ratio relative to DMSO control wells.
# as §2, with “BRAF^RBDD” for “BRAF^RBD”
# KRAS G12S = KRAS G12S (Homo sapiens, UniProt P01116+P62937, G12S); conditions: read-out: KRAS G12S FRET data, IC50
# Excerpt: as §1, §2, §3
# as §2, with “BRAF^RBDD” for “BRAF^RBD”
# KRAS G12C = KRAS G12C (Homo sapiens, UniProt P01116+P62937, G12C); conditions: KRAS G12C; read-out: KRAS G12C FRET data IC50
# Excerpt: as §1, §2, §3
# as §2, with “BRAF^RBDD” for “BRAF^RBD”
# KRAS G12V = KRAS G12V (Homo sapiens, UniProt P01116+P62937, G12V); conditions: KRAS G12V; read-out: KRAS G12V FRET data IC50
# Excerpt: as §1, §2, §3
# as §2, with “BRAF^RBDD” for “BRAF^RBD”
# KRAS WT = KRAS WT (Homo sapiens, UniProt P01116+P62937); conditions: KRAS WT; read-out: KRAS WT FRET data IC50
# Excerpt: as §1, §2, §3
# as §2, with “BRAF^RBDD” for “BRAF^RBD”
# KRAS G13C = KRAS G13C (Homo sapiens, UniProt P01116+P62937, G13C)
# Excerpt: as §1, §2, §3
# as §2, with “BRAF^RBDD” for “BRAF^RBD”
# [1] = KRAS G13C, read-out: KRAS G13C FRET data IC50
# KRAS G13C, sequence (P01116 1-169 isoform P01116-2 G13C): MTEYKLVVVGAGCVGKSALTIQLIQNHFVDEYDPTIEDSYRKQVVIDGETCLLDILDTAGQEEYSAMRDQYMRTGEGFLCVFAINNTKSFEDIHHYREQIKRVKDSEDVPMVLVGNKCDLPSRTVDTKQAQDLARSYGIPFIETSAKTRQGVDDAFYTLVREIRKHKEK
# KRAS G13C, sequence (P62937 whole entry): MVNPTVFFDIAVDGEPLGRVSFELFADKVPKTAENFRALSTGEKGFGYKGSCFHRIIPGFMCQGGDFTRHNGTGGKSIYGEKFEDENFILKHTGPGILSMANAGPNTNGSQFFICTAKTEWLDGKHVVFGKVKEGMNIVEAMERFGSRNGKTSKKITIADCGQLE
# KRAS G12S, sequence (P01116 1-169 isoform P01116-2 G12S limits assumed): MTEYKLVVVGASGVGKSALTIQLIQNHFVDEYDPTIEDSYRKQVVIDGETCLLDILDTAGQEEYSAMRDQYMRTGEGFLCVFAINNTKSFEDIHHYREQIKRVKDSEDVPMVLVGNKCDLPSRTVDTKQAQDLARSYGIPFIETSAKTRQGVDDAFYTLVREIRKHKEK
# KRAS G12S, sequence (P62937 whole entry): as the sequence (P62937 whole entry) above
# KRAS G12C, sequence (P01116 1-169 isoform P01116-2 G12C): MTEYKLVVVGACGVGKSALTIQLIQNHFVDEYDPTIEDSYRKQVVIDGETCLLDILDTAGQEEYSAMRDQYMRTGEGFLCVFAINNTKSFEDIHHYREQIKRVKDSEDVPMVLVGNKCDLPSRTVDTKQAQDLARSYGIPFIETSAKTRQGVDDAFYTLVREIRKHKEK
# KRAS G12C, sequence (P62937 whole entry): as the sequence (P62937 whole entry) above
# KRAS G12D, sequence (P01116 1-169 isoform P01116-2 G12D limits assumed): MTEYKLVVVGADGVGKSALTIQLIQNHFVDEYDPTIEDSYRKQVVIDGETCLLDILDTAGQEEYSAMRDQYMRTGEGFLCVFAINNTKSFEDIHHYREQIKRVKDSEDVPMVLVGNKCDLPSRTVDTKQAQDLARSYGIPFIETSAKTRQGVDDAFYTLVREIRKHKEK
# KRAS G12D, sequence (P62937 whole entry): as the sequence (P62937 whole entry) above
# KRAS WT, sequence (P01116 1-169 isoform P01116-2 limits assumed): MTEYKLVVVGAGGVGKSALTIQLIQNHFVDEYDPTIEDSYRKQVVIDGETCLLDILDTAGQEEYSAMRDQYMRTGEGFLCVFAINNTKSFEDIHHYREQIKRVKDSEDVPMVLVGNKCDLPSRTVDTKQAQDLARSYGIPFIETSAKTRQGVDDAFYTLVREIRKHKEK
# KRAS WT, sequence (P62937 whole entry): as the sequence (P62937 whole entry) above
# KRAS G12V, sequence (P01116 1-169 isoform P01116-2 G12V limits assumed): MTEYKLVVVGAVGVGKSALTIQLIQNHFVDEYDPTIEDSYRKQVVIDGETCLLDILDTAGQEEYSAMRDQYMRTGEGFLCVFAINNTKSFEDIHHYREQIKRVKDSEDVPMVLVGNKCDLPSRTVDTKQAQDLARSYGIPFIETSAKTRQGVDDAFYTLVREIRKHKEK
# KRAS G12V, sequence (P62937 whole entry): as the sequence (P62937 whole entry) above
SMILES,IC50 (KRAS G12D),IC50 (KRAS G12S),IC50 (KRAS G12C),IC50 (KRAS G12V),IC50 (KRAS WT),IC50 (KRAS G13C; [1]),"IC50 (KRAS G13C; read-out: KRAS G13C FRET data, IC50) [nM]"
"C=C(C)C(=O)N1CC(N(C)C(=O)N(C)[C@H](C(=O)N[C@H]2Cc3nc(cs3)-c3ccc4c(c3)c(c(-c3cccnc3[C@H](C)OC)n4CC)CC(C)(C)COC(=O)[C@@H]3CCCN(N3)C2=O)C(C)C)C1 (atropisomer, axis not shown) [Example A360]",1000 to 10000 nM,,,,,,
"C=CC(=O)N1CC[C@H](C(=O)N(C)[C@H](C(=O)N[C@H]2Cc3cc(O)cc(c3)-c3ccc4c(c3)c(c(-c3ccncc3CCOC)n4CC)CC(C)(C)COC(=O)[C@@H]3CCCN(N3)C2=O)C(C)C)C1 (single isomer, unassigned) [Example A048]",1000 to 10000 nM and > 10000 nM,100 to 1000 nM and > 10000 nM,10 to 100 nM and 1000 to 10000 nM,100 to 1000 nM and > 10000 nM,1000 to 10000 nM and > 10000 nM,100 to 1000 nM and > 10000 nM,
C=CC(=O)N1CC[C@H](C(=O)N(C)[C@H](C(=O)N[C@H]2Cc3cc(O)cc(c3)-c3ccc4c(c3)c(c(-c3ccc(CN(C)C)cc3)n4CC)CC(C)(C)COC(=O)[C@@H]3CCCN(N3)C2=O)C(C)C)C1 [Example A003],> 10000 nM,1000 to 10000 nM,100 to 1000 nM,1000 to 10000 nM,> 10000 nM,1000 to 10000 nM,
C=CC(=O)N1CC[C@H](C(=O)N(C)[C@H](C(=O)N[C@H]2Cc3cc(O)cc(c3)-c3ccc4c(c3)c(c(-c3ccccc3CN(C)C)n4CC)CC(C)(C)COC(=O)[C@@H]3CCCN(N3)C2=O)C(C)C)C1 [Example A005],1000 to 10000 nM,100 to 1000 nM,10 to 100 nM,100 to 1000 nM,100 to 1000 nM,100 to 1000 nM,
C=CC(=O)N1CC[C@H](C(=O)N(C)[C@H](C(=O)N[C@H]2Cc3cc(O)cc(c3)-c3ccc4c(c3)c(c(-c3ccc(CN5CCCC5)cc3)n4CC)CC(C)(C)COC(=O)[C@@H]3CCCN(N3)C2=O)C(C)C)C1 [Example A010],> 10000 nM,1000 to 10000 nM,100 to 1000 nM,1000 to 10000 nM,1000 to 10000 nM,1000 to 10000 nM,
C=CC(=O)N1CCN(C(=O)N(C)[C@H](C(=O)N[C@H]2Cc3cc(O)cc(c3)-c3ccc4c(c3)c(c(-c3ccccc3CCOC)n4CC)CC(C)(C)COC(=O)[C@@H]3CCCN(N3)C2=O)C(C)C)CC1 [Example A018],> 10000 nM,1000 to 10000 nM,100 to 1000 nM,1000 to 10000 nM,1000 to 10000 nM,100 to 1000 nM,
C=CC(=O)N1CC[C@H](C(=O)N(C)[C@H](C(=O)N[C@H]2Cc3cc(O)cc(c3)-c3ccc4c(c3)c(c(-c3cccc(CN(C)C)c3)n4CC)CC(C)(C)COC(=O)[C@@H]3CCCN(N3)C2=O)C(C)C)C1 [Example A030],> 10000 nM,1000 to 10000 nM,100 to 1000 nM,1000 to 10000 nM,1000 to 10000 nM,1000 to 10000 nM,
C=CC(=O)N1CC2(CCN([C@H](C(=O)N[C@H]3Cc4cc(O)cc(c4)-c4ccc5c(c4)c(c(-c4ccccc4CCOC)n5CC)CC(C)(C)COC(=O)[C@@H]4CCCN(N4)C3=O)C(C)C)C2=O)C1 [Example A031],> 10000 nM,1000 to 10000 nM,10 to 100 nM,1000 to 10000 nM,1000 to 10000 nM,10 to 100 nM,
C=CC(=O)N1CCC(C(=O)N(C)[C@H](C(=O)N[C@H]2Cc3cc(O)cc(c3)-c3ccc4c(c3)c(c(-c3ccccc3CN(C)C)n4CC)CC(C)(C)COC(=O)[C@@H]3CCCN(N3)C2=O)C(C)C)CC1 [Example A033],> 10000 nM,1000 to 10000 nM,100 to 1000 nM,> 10000 nM,1000 to 10000 nM,100 to 1000 nM,
C=CC(=O)N1CC[C@H](C(=O)N(C)[C@H](C(=O)N[C@H]2Cc3cc(O)cc(c3)-c3ccc4c(c3)c(c(-c3ccccc3CCOC)n4C(C)(C)C#N)CC(C)(C)COC(=O)[C@@H]3CCCN(N3)C2=O)C(C)C)C1 [Example A034],1000 to 10000 nM,100 to 1000 nM,100 to 1000 nM,100 to 1000 nM,1000 to 10000 nM,1000 to 10000 nM,

# Other lines, results leading:
IC50 (KRAS G12D),IC50 (KRAS G12S),IC50 (KRAS G12C),IC50 (KRAS G12V),IC50 (KRAS WT),IC50 (KRAS G13C; [1]),"IC50 (KRAS G13C; read-out: KRAS G13C FRET data, IC50) [nM]",SMILES
> 10000 nM,1000 to 10000 nM,100 to 1000 nM,1000 to 10000 nM,1000 to 10000 nM,1000 to 10000 nM,,C=CC(=O)N1CC[C@H](C(=O)N(C)[C@H](C(=O)N[C@H]2Cc3cc(OC(=O)CN)cc(c3)-c3ccc4c(c3)c(c(-c3ccccc3CCOC)n4CC)CC(C)(C)COC(=O)[C@@H]3CCCN(N3)C2=O)C(C)C)C1 [Example A008]
> 10000 nM,> 10000 nM,1000 to 10000 nM,> 10000 nM,> 10000 nM,> 10000 nM,,C=CC(=O)N1CC[C@H](C(=O)N(C)[C@H](C(=O)N[C@H]2Cc3cc(cc(O)c3F)-c3ccc4c(c3)c(c(-c3ccccc3CCOC)n4CC)CC(C)(C)COC(=O)[C@@H]3CCCN(N3)C2=O)C(C)C)C1 [Example A009]
> 10000 nM,1000 to 10000 nM,100 to 1000 nM,1000 to 10000 nM,1000 to 10000 nM,100 to 1000 nM,,C=CC(=O)N1CCCN(C(=O)N(C)[C@H](C(=O)N[C@H]2Cc3cc(O)cc(c3)-c3ccc4c(c3)c(c(-c3ccccc3CCOC)n4CC)CC(C)(C)COC(=O)[C@@H]3CCCN(N3)C2=O)C(C)C)CC1 [Example A013]
> 10000 nM,1000 to 10000 nM,100 to 1000 nM,> 10000 nM,1000 to 10000 nM,1000 to 10000 nM,,C=CC(=O)N1CCC(C(=O)N(C)[C@H](C(=O)N[C@H]2Cc3cc(O)cc(c3)-c3ccc4c(c3)c(c(-c3ccccc3CCOC)n4CC)CC(C)(C)COC(=O)[C@@H]3CCCN(N3)C2=O)C(C)C)CC1 [Example A014]
> 10000 nM,1000 to 10000 nM,100 to 1000 nM,> 10000 nM,1000 to 10000 nM,1000 to 10000 nM,,CCn1c(-c2ccccc2CCOC)c2c3cc(ccc31)-c1cc(O)cc(c1)C[C@H](NC(=O)[C@H](C(C)C)N(C)C(=O)C1CCN(C(=O)/C=C/CN(C)C)CC1)C(=O)N1CCC[C@H](N1)C(=O)OCC(C)(C)C2 [Example A019]
> 10000 nM,> 10000 nM,1000 to 10000 nM,> 10000 nM,> 10000 nM,> 10000 nM,,C=CC(=O)N1CC[C@H](C(=O)N(C)[C@H](C(=O)N[C@H]2Cc3cc(O)cc(c3)-c3ccc4c(c3)c(c(-c3ccc(CC(=O)O)cc3)n4CC)CC(C)(C)COC(=O)[C@@H]3CCCN(N3)C2=O)C(C)C)C1 [Example A021]
1000 to 10000 nM,100 to 1000 nM,10 to 100 nM,100 to 1000 nM,100 to 1000 nM,100 to 1000 nM,,C=CC(=O)N1CC[C@H](C(=O)N(C)[C@H](C(=O)N[C@H]2Cc3cc(O)cc(c3)-c3ccc4c(c3)c(c(-c3ccccc3[C@@H](C)OC)n4CC)CC(C)(C)COC(=O)[C@@H]3CCCN(N3)C2=O)C(C)C)C1 [Example A029]
> 10000 nM,100 to 1000 nM and > 10000 nM,10 to 100 nM and 1000 to 10000 nM,1000 to 10000 nM and > 10000 nM,1000 to 10000 nM and > 10000 nM,1000 to 10000 nM and > 10000 nM,,C=CC(=O)N1CC[C@H](C(=O)N(C)[C@H](C(=O)N[C@H]2Cc3cc(OC(=O)CCC(=O)O)cc(c3)-c3ccc4c(c3)c(c(-c3ccccc3CCOC)n4CC)CC(C)(C)COC(=O)[C@@H]3CCCN(N3)C2=O)C(C)C)C1 [Example A032]
> 10000 nM,1000 to 10000 nM,100 to 1000 nM,1000 to 10000 nM,1000 to 10000 nM,1000 to 10000 nM,,C=CC(=O)N1CC[C@H](C(=O)N(C)[C@H](C(=O)N[C@H]2Cc3cc(O)cc(c3)-c3ccc4c(c3)c(c(-c3ccc5cc(CN(C)C)n(C)c5c3)n4CC)CC(C)(C)COC(=O)[C@@H]3CCCN(N3)C2=O)C(C)C)C1 [Example A035]
> 10000 nM,,,,,,,C=CC(=O)N1CC[C@H](C(=O)N(C)[C@H](C(=O)N[C@H]2Cc3cc(O)cc(c3)-c3ccc4c(c3)c(c(-c3ccc(N5CCN(C)CC5)nc3)n4CC)CC(C)(C)COC(=O)[C@@H]3CCCN(N3)C2=O)C(C)C)C1 [Example A089]
,,< 10 nM,,,,,C=CC(=O)N1CC[C@H](C(=O)N(C)[C@H](C(=O)N[C@H]2Cc3cc(O)cc(c3)-c3ccc4c(c3)c(c(-c3cnccc3[C@H](C)OC)n4CC)CC(C)(C)COC(=O)[C@@H]3CCCN(N3)C2=O)C(C)C)C1 [Example A112]
,,,,,,1000 to 10000,CCn1c(-c2cccnc2[C@H](C)OC)c2c3cc(ccc31)-c1csc(n1)C[C@H](NC(=O)[C@H](C(C)C)N(C)C(=O)O[C@H]1CCN(C)C1)C(=O)N1CCC[C@H](N1)C(=O)OCC(C)(C)C2 [Example A173]
